pEC50, pIC50: −log10 of the molar value.
Experiments:
[1] = molecular target: T1, SCD5 (Homo sapiens, UniProt Q86SK9); experiment: Growth inhibition of humanized yeast strain expressing SCD5 as sole desaturase; format: cell-based; conditions: humanized yeast strain expressing SCD5
T1 construct: host or cells: S. cerevisiae ole1Δ strain (W303 pdr1Δ pdr3Δ background), plasmid pRS316 with TDH3 promoter and CYC1 terminator
T1 sequence (Q86SK9 1-330): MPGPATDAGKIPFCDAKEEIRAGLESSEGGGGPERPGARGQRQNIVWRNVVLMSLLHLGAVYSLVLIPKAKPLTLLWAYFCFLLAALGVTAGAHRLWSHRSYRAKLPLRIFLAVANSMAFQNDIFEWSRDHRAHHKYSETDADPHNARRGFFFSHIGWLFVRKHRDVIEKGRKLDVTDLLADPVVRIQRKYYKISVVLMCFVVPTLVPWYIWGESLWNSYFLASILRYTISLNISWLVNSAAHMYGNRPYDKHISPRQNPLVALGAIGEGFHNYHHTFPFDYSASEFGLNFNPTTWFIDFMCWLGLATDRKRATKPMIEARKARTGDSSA
Outline: (§1)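 Plasmid-complemented ole1Δ yeast, drug-pump deleted (pdr1Δ pdr3Δ), depend solely on the introduced Ole1, SCD1 or SCD5 desaturase. Compounds are added from DMSO to cells in uracil-free galactose medium, 2× density 0.02, and OD600 is read after 24 h or 40 h respectively.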

[2] = molecular target: T2, SCD1 (Homo sapiens, UniProt O00767); experiment: Growth inhibition of humanized yeast strain expressing SCD1 as sole desaturase; format: cell-based; conditions: humanized yeast strain expressing SCD1
T2 construct: host or cells: S. cerevisiae ole1Δ strain (W303 pdr1Δ pdr3Δ background), plasmid pRS316 with TDH3 promoter and CYC1 terminator
T2 sequence (O00767 1-359): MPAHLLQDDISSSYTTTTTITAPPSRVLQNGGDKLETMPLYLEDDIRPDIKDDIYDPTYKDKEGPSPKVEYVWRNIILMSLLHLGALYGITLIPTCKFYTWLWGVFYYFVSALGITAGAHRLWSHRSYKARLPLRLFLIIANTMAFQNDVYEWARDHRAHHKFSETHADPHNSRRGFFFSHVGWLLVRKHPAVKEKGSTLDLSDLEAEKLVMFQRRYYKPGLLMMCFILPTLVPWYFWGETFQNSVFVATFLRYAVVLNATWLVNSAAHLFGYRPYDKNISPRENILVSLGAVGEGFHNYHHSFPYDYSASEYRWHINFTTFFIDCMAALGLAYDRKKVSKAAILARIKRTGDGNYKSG
Outline: as §1

[3] = tested on: yeast strains expressing the human ApoE4; experiment: Yeast ApoE4 toxicity rescue assay (OD600 growth); conditions: 24 h; for pEC50: read-out: ApoE4 EC50; for Emax: read-out: ApoE4 Emax
[4] = molecular target: T3, Ole1 (Saccharomyces cerevisiae, UniProt P21147); experiment: Growth inhibition of yeast strain expressing Ole1 as sole desaturase; format: cell-based; conditions: yeast strain expressing Ole1 as sole desaturase
T3 construct: expressed in transfected cells; host or cells: S. cerevisiae ole1Δ strain (W303 pdr1Δ pdr3Δ background), plasmid pRS316 with TDH3 promoter and CYC1 terminator
T3 sequence (P21147 1-510): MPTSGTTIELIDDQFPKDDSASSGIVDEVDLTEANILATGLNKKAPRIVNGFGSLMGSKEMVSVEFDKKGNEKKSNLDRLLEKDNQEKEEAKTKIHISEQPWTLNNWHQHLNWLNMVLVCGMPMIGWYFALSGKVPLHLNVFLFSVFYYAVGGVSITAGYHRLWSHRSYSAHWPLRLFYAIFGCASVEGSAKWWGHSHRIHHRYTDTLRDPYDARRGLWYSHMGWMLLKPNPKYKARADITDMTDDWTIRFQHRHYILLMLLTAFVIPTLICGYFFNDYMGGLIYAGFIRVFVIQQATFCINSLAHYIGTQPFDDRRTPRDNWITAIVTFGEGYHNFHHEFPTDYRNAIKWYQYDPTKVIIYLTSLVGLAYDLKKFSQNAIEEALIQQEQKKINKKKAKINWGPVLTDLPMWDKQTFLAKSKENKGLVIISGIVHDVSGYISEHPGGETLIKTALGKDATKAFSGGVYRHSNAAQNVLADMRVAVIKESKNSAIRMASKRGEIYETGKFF
Outline: as §1

[5] = tested on: yeast strains expressing the human α-synuclein; experiment: Yeast α-synuclein toxicity rescue assay (OD600 growth); conditions: 40 h; for pEC50: read-out: α-Syn EC50; for Emax: read-out: α-Syn Emax

Row | Structure (SMILES) | pIC50 [1] | SCD5 % Max Inhibition [1] | pIC50 [2] | SCD1 % Max Inhibition [2] | pEC50 [3] | Emax [3] | pIC50 [4] | OLE1 % Max Inhibition [4] | pEC50 [5] | Emax [5]
1 | Cc1ccc(-c2noc(C3CCN(C(=O)[C@@H]4CC(=O)N(c5ccc(C)c(C)c5)C4)CC3)n2)cc1 [Compound 62] | < 4.35 | 5.75% | < 4.35 | 28.73% | 4.67 | 430% | < 4.35 | 86.77% | 4.66 | 204%
2 | COc1ccc(-c2noc(C3CCN(C(=O)[C@H]4CC(=O)N(c5ccc(C)c(C)c5)C4)CC3)n2)cc1 [Compound 64] | < 4.35 | 42.05% | < 4.35 | 32.39% | 4.82 | 330% | < 4.35 | 115.95% | 4.86 | 228%
3 | CCOc1ccc(-c2noc(C3CCN(C(=O)CNC(=O)c4ccccc4)CC3)n2)cc1OC [Compound 155] | 4.47 | 67.35% | < 4.35 | 98.25% | 5.67 | 865% | – | 1.65% | 7.96 | 556%
4 | Cc1ccc(N2CC(C(=O)N3CCC(c4nc(-c5ccccc5)no4)CC3)CC2=O)cc1C (stereo not shown) [compound 1] | < 4.35 | – | < 4.35 | – | – | 320% | 4.39 | – | – | 155%
5 | Cc1cccc(-c2noc(C3CCN(C(=O)C4CC(=O)N(c5ccc(C)c(C)c5)C4)CC3)n2)c1 (stereo not shown) [compound 3] | < 4.35 | – | < 4.35 | – | – | 200% | 4.41 | – | 4.75 | 307%
6 | CCN1C(=O)COc2ccc(-c3noc(C4CCN(C(=O)C5CC(=O)N(c6ccc(C)c(C)c6)C5)CC4)n3)cc21 (stereo not shown) [compound 4] | < 4.35 | – | < 4.35 | – | 4.93 | 76% | < 4.35 | – | 5.07 | 59%
7 | COc1ccc(-c2noc(N3CCC(C(=O)N4CCCCC4)CC3)n2)cc1OC [compound 6] | 4.39 | – | < 4.35 | – | 4.82 | 815% | 4.41 | – | 4.99 | 460%
8 | CC(C)c1ccc(C(=O)N2CCC(c3nc(-c4cccc(F)c4)no3)CC2)cc1 [compound 8] | < 4.35 | – | < 4.35 | – | – | 111% | < 4.35 | – | 4.86 | 188%
9 | O=C(NCC(=O)N1CCC(c2nc(-c3ccccc3)no2)CC1)c1ccccc1 [compound 9] | < 4.35 | – | < 4.35 | – | – | 301% | < 4.35 | – | 4.92 | 167%
10 | COc1ccc(-c2noc(C3CCN(C(=O)CNC(=O)c4ccccc4)CC3)n2)cc1 [compound 10] | < 4.35 | – | < 4.35 | – | 5.34 | 736% | < 4.35 | – | 5.31 | 392%
11 | COc1cccc(-c2noc(C3CCN(C(=O)CNC(=O)c4ccccc4)CC3)n2)c1 [compound 11] | < 4.35 | – | < 4.35 | – | – | 600% | < 4.35 | – | 5.23 | 309%
12 | COc1ccc(-c2noc(C3CCN(C(=O)CNC(=O)c4ccc(C)cc4)CC3)n2)cc1OC [compound 13] | < 4.35 | – | < 4.35 | – | 6.43 | 837% | < 4.35 | – | 7.24 | 712%
13 | COc1ccc(-c2noc(C3CCN(C(=O)CNC(=O)c4cccc(C)c4)CC3)n2)cc1OC [compound 14] | 4.56 | – | < 4.35 | – | 5.74 | 771% | < 4.35 | – | 5.93 | 463%
14 | COc1ccc(-c2noc(C3CCN(C(=O)CNC(=O)c4ccc(C)c(C)c4)CC3)n2)cc1OC [compound 15] | < 4.35 | – | < 4.35 | – | 5.44 | 866% | < 4.35 | – | 5.77 | 628%
15 | COc1ccc(-c2noc(C3CCN(C(=O)CNC(=O)c4ccc(C)c(C)c4)CC3)n2)cc1 [compound 16] | < 4.35 | – | 4.43 | – | 4.67 | 418% | < 4.35 | – | 4.75 | 249%
16 | COc1cccc(-c2noc(C3CCN(C(=O)CNC(=O)c4ccc(C)c(C)c4)CC3)n2)c1 [compound 17] | < 4.35 | – | < 4.35 | – | – | 246% | < 4.35 | – | 4.76 | 330%
17 | COc1ccc(-c2noc(C3CCN(C(=O)C4CC(=O)N(c5ccc(C)c(C)c5)C4)CC3)n2)cc1OC (stereo not shown) [compound 19] | < 4.35 | – | < 4.35 | – | 5.25 | 891% | < 4.35 | – | 5.62 | 574%
18 | COc1ccc(-c2noc(C3CCN(C(=O)C4CC(=O)N(c5ccc(C)c(C)c5)C4)CC3)n2)cc1 (stereo not shown) [compound 20] | < 4.35 | – | < 4.35 | – | 4.79 | 529% | < 4.35 | – | 4.82 | 181%
19 | COc1cccc(-c2noc(C3CCN(C(=O)C4CC(=O)N(c5ccc(C)c(C)c5)C4)CC3)n2)c1 (stereo not shown) [compound 21] | < 4.35 | – | 4.40 | – | – | 447% | < 4.35 | – | – | 276%
20 | O=C(NCC(=O)N1CCC(c2nc(-c3ccc(Cl)c(Cl)c3)no2)CC1)c1ccccc1 [compound 23] | < 4.35 | – | 4.47 | – | 5.19 | 466% | < 4.35 | – | 5.11 | 182%
21 | O=C(NCC(=O)N1CCC(c2nc(-c3ccc(F)c(F)c3)no2)CC1)c1ccccc1 [compound 24] | 4.52 | – | < 4.35 | – | 4.87 | 301% | < 4.35 | – | 5.29 | 76%
22 | COc1ccc(-c2noc(C3CCN(C(=O)CNC(=O)c4ccccc4Cl)CC3)n2)cc1OC [compound 25] | 4.40 | – | < 4.35 | – | 5.73 | 889% | < 4.35 | – | 6.12 | 619%
23 | COc1ccc(-c2noc(C3CCN(C(=O)CNC(=O)c4cccc(Cl)c4)CC3)n2)cc1OC [compound 26] | 4.61 | – | < 4.35 | – | 6.42 | 811% | < 4.35 | – | 7.38 | 608%
24 | COc1ccc(-c2noc(C3CCN(C(=O)CNC(=O)c4ccc(Cl)cc4)CC3)n2)cc1OC [compound 27] | < 4.35 | – | < 4.35 | – | 6.41 | 761% | < 4.35 | – | 7.23 | 589%
25 | O=C(NCC(=O)N1CCC(c2nc(-c3ccc4ccccc4n3)no2)CC1)c1ccccc1 [compound 79] | < 4.35 | – | < 4.35 | – | 4.72 | 631% | < 4.35 | – | 5.00 | 627%
26 | CCOc1ccc(-c2noc(C3CCN(C(=O)NC4CC4c4ccccc4)CC3)n2)cc1OC (stereo not shown) [compound 80] | < 4.35 | – | < 4.35 | – | 5.22 | 262% | < 4.35 | – | 5.48 | 188%
